This passage reports relative viability results from the supplement of paper PMC10307832.

What all share (assay): relative viability (nuclei count vs DMSO), 5 days (fraction); higher = more cells survive
Compound in experiment [1]: CN(C)CC1=CC(=CC=C1)N=C(C2=CC=CC=C2)C3=C(NC4=C3C=CC(=C4)C(=O)N(C)C)O + CCNC(=O)c1noc(-c2cc(C(C)C)c(O)cc2O)c1-c1ccc(CN2CCOCC2)cc1 [Luminespib] (partner 0.01 µM)
Put shortly:
(§1)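 For relative viability, nuclei counts in treated wells were divided by those in vehicle wells. Lung cancer cell lines had been pin-tool dosed in 1536-well plates the day after seeding and cultured for 5 days, then fixed and stained in one step (final 0.05% Triton X-100, 1% formaldehyde, 1 ug/ml Hoechst) and imaged at 4×. Doses were one drug alone or a fixed anchor-drug dose plus five library-drug doses (not always all listed) in √10 steps, and values are duplicate-plate medians.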

Compound in experiment [2]: CN(C)CC1=CC(=CC=C1)N=C(C2=CC=CC=C2)C3=C(NC4=C3C=CC(=C4)C(=O)N(C)C)O + CS(=O)(=O)CCNCc1ccc(-c2ccc3ncnc(Nc4ccc(OCc5cccc(F)c5)c(Cl)c4)c3c2)o1 [Lapatinib] (partner 2 µM)
Put shortly:
as §1

Compound in experiment [3]: CN(C)CC1=CC(=CC=C1)N=C(C2=CC=CC=C2)C3=C(NC4=C3C=CC(=C4)C(=O)N(C)C)O + Nc1ncn([C@H]2C[C@H](O)[C@@H](CO)O2)c(=O)n1 [Decitabine] (partner 2 µM)
The essentials: as §1

Compound in experiment [4]: CN(C)CC1=CC(=CC=C1)N=C(C2=CC=CC=C2)C3=C(NC4=C3C=CC(=C4)C(=O)N(C)C)O + O=C(c1cc(Cc2n[nH]c(=O)c3ccccc23)ccc1F)N1CCN(C(=O)C2CC2)CC1 [Olaparib] (partner 8 µM)
The essentials:
as §1

As to PC-14, the relative viability in experiment [1] (first compound 0.08 µM) was found to be 0.206; in experiment [1] (first compound 0.253 µM) it was 0.131; in experiment [1] (first compound 0.8 µM), 0.146; in experiment [1] (first compound 2.53 µM) it was 0.145; in experiment [1] (first compound 8 µM), 0.102; in experiment [2] (first compound 0.08 µM) it was 0.33. Moreover, the relative viability is 0.264 in experiment [2] (first compound 0.253 µM); 0.38 in experiment [2] (first compound 0.8 µM); 0.313 in experiment [2] (first compound 2.53 µM); 0.311 in experiment [2] (first compound 8 µM); 0.254 in experiment [3] (first compound 0.08 µM); 0.214 in experiment [3] (first compound 0.253 µM). In addition, the relative viability in experiment [3] (first compound 0.8 µM) stood at 0.213; in experiment [3] (first compound 2.53 µM) it was 0.236; in experiment [3] (first compound 8 µM), 0.25; in experiment [4] (first compound 0.08 µM), 0.325; in experiment [4] (first compound 0.253 µM), 0.212; in experiment [4] (first compound 0.8 µM) it was 0.23. Moreover, the relative viability in experiment [4] (first compound 2.53 µM) turned out to be 0.294; in experiment [4] (first compound 8 µM), 0.312.
With NCI-H2126, the relative viability came out at 0.993 in experiment [1] (first compound 0.08 µM); 0.858 in experiment [1] (first compound 0.253 µM); 0.937 in experiment [1] (first compound 0.8 µM); 0.883 in experiment [1] (first compound 2.53 µM); 0.886 in experiment [1] (first compound 8 µM); 0.76 in experiment [2] (first compound 0.08 µM). The relative viability in experiment [2] (first compound 0.253 µM) amounted to 0.762; in experiment [2] (first compound 0.8 µM) it was 0.73; in experiment [2] (first compound 2.53 µM) it was 0.765; in experiment [2] (first compound 8 µM) it was 0.762; in experiment [3] (first compound 0.08 µM) it was 0.568; in experiment [3] (first compound 0.253 µM) it was 0.602. For the same cell line, the relative viability in experiment [3] (first compound 0.8 µM) is 0.598; in experiment [3] (first compound 2.53 µM), 0.606; in experiment [3] (first compound 8 µM) it was 0.633; in experiment [4] (first compound 0.08 µM), 0.885; in experiment [4] (first compound 0.253 µM), 0.87; in experiment [4] (first compound 0.8 µM), 0.907. For the same cell line, the relative viability stood at 0.912 in experiment [4] (first compound 2.53 µM) and 0.957 in experiment [4] (first compound 8 µM).
As to NCI-H1395, the relative viability in experiment [1] (first compound 0.08 µM) was found to be 0.594; in experiment [1] (first compound 0.253 µM) it was 0.778; in experiment [1] (first compound 0.8 µM) it was 0.672; in experiment [1] (first compound 2.53 µM), 0.653; in experiment [1] (first compound 8 µM), 0.86; in experiment [2] (first compound 0.08 µM), 0.948. Also, the relative viability in experiment [2] (first compound 0.253 µM) came out at 1.14; in experiment [2] (first compound 0.8 µM), 1.2; in experiment [2] (first compound 2.53 µM), 0.892; in experiment [2] (first compound 8 µM), 0.943; in experiment [3] (first compound 0.08 µM), 0.752; in experiment [3] (first compound 0.253 µM), 0.757. The relative viability in experiment [3] (first compound 0.8 µM) worked out at 0.759; in experiment [3] (first compound 2.53 µM), 0.727; in experiment [3] (first compound 8 µM), 0.758; in experiment [4] (first compound 0.08 µM), 0.499; in experiment [4] (first compound 0.253 µM) it was 0.445; in experiment [4] (first compound 0.8 µM), 0.416. In addition, the relative viability was determined as 0.492 in experiment [4] (first compound 2.53 µM) and 0.448 in experiment [4] (first compound 8 µM).
Turning to NCI-H1648, the relative viability turned out to be 0.418 in experiment [3] (first compound 0.08 µM); 0.568 in experiment [3] (first compound 0.253 µM); 0.538 in experiment [3] (first compound 2.53 µM); 0.544 in experiment [3] (first compound 8 µM); 0.867 in experiment [4] (first compound 0.08 µM); 0.72 in experiment [4] (first compound 0.253 µM). Moreover, the figures for the relative viability in experiment [4] (first compound 2.53 µM) and in experiment [4] (first compound 8 µM) were 0.709 and 1.28, respectively.
For the cell line NCI-H596, the relative viability in experiment [1] (first compound 0.08 µM) turned out to be 0.974; in experiment [1] (first compound 0.253 µM), 1.24; in experiment [1] (first compound 0.8 µM), 0.993; in experiment [1] (first compound 2.53 µM), 1.14; in experiment [1] (first compound 8 µM) it was 0.551; in experiment [2] (first compound 0.08 µM), 1.12. Further, the relative viability in experiment [2] (first compound 0.253 µM) worked out at 1.32; in experiment [2] (first compound 0.8 µM) it was 0.971; in experiment [2] (first compound 2.53 µM), 1.05; in experiment [2] (first compound 8 µM), 1.13; in experiment [3] (first compound 0.08 µM) it was 0.919; in experiment [3] (first compound 0.253 µM), 1.05. Also, the relative viability in experiment [3] (first compound 0.8 µM) came to 0.967; in experiment [3] (first compound 2.53 µM) it was 1.03; in experiment [3] (first compound 8 µM), 0.979; in experiment [4] (first compound 0.08 µM) it was 0.692; in experiment [4] (first compound 0.253 µM), 0.718; in experiment [4] (first compound 0.8 µM), 0.695. Also, the results for the relative viability in experiment [4] (first compound 2.53 µM) and in experiment [4] (first compound 8 µM) were 0.69 and 0.861, respectively.
